Experimental data published in US20110195979A1, “COMPOUNDS FOR THE TREATMENT AND PREVENTION OF INFLUENZA” (priority 2010, published 2011).
pEC50, pIC50: −log10 of the molar value. Like-named read-outs stand apart in the source and are kept apart here.

Experiments:
[1] = test system: Influenza H1N1 virus; experiment: Viral cytopathic effect (CPE) assay; assay type: cell-based, Influenza A (H1N1)
Experimental: Cells and viruses. Madin-Darby canine kidney cell (MDCK) was purchased from American type culture collection (ATCC) and was maintained in minimal essential medium (MEM) containing 10% fetal bovine serum and antibiotics. Influenza A/Weiss/43 (H1N1), A/PR/8/34 (H1N1), and A/Hongkong/8/68 (H3N2) were purchased from ATCC and propagated in 10-day-old embryonated chicken eggs at 37° C. Virus was harvested 48 h after inoculation as pooled allantoic fluid. After a brief centrifugation (3,000 rpm at room temperature for 20 min) and virus titer measurement by a hemagglutination test, virus was aliquoted and stored at a −80° C. freezer.
Viral cytopathic effect (CPE) assay: To measure anti-influenza activity of compounds, MDCK cells were seeded into 96-well plates at a density of 5,000 cells per well. Next day, compounds were serially half-log diluted with Gibco SFM containing trypsin. Compounds and 50 pfu of virus were added into corresponding wells to make m.o.i at 0.01 and a final trypsin concentration of 2.5 μg/ml. The testing plates also contained medium control, cell control, virus control, and compound toxicity control. After a 3-day treatment, cell viability was measured with a MTT (3-(4,5-dimethylthiazol-2-yl)-2,5-diphenyltetrazolium bromide) method. Briefly, 20 μl of MTT diluted in culture medium was added into each wells and incubated at 37° C. for 4 hours. Reduced MTT (formazan) was extracted with acidic isopropanol and absorbance at wavelengths of 570 nm and 630 nm (OD570 and OD630) was read on a microtiter plate reader. After subtraction of background OD values, dose response curves of half-log concentration vs. percent protection were generated, on which half maximal effective concentration (EC50) and half maximal toxic concentration (CC50) were calculated.

[2] = test system: MDCK cells; experiment: Cytotoxicity to MDCK cells (compound toxicity control, MTT); conditions: for pIC50: read-out: Cytotoxicy IC50, half maximal cytotoxicity concentration to MDCK cells, MTT; for IC50 at 3 day: dog
[3] = test system: MDCK cells; conditions: dog, 3 day
[4] = test system: H1 and H2 viruses; conditions: cited from earlier work
[5] = test system: H3 viruses; conditions: cited from earlier work
[6] = test system: MDCK cells; experiment: in vitro; conditions: dog, Cytotoxicy IC50
[7] = test system: H3 influenza viruses; conditions: cited from earlier work
[8] = H1N1; MDCK cells, m.o.i 0.01, 3-day treatment, MTT OD; mean of triplicate experiments; read-out: CPE_EC50
[9] = Influenza A virus, H1N1, MDCK, 72 h, read-out: CPE_EC50

Row | Molecule | pEC50 [1, 9] | IC50 at 3 day [6] [µM] | further results
1 | CC1(C)C[C@@H](O)C[C@@](C)(CNc2cc(Cl)cc(C#N)c2)C1 (relative stereo) [Example IIa-23, 3-Chloro-5-[((cis-1,5)-5-hydroxy-1,3,3-trimethyl-cyclohexylmethyl)-amino]-benzonitrile] | – | – | pEC50 [1, 8]: 7.47; pIC50 [2]: 4.86
2 | CC1(C)CC(O)CC(CNc2cc(F)cc(C(F)(F)F)c2)C1 (single isomer, unassigned) [Example IIi-1/2 Isomer 1, (cis-1,5)-5-[(3-Fluoro-5-trifluoromethyl-phenylamino)-methyl]-3,3-dimethyl-cyclohexanol] | > 6.51 | – | pIC50 [3]: 5.09
3 | CC1(C)CC(O)CC(CNc2cc(F)cc(C(F)(F)F)c2)C1 (single isomer, unassigned) [Example IIi-1/2 Isomer 2, (trans-1,5)-5-[(3-fluoro-5-trifluoromethyl-phenylamino)-methyl]-3,3-dimethyl-cyclohexanol] | – | – | pEC50 ([1]; read-out: CPE_EC50; H1N1; MDCK cells, m.o.i 0.01, 3-day treatment, MTT OD; mean of triplicate experiments): > 6.51; pIC50 [3]: 4.77
4 | C[C@@H]1CCC[C@@H]2C[C@@H](NC(=O)c3cc(Cl)c(N)cc3O)CCN21 [BMY 27709] | – | – | pEC50 ([4]; read-out: anti-flu activity EC50): 5.10 to 5.22; activity against H3 viruses [5]: not H3 viruses
5 | CC1(C)CC(O)CC(C)(CNc2ccc(C#N)c(Cl)c2)C1 (stereo not drawn) [Example IIa-29, 2-Chloro-4-[((cis-1,5)-5-hydroxy-1,3,3-trimethyl-cyclohexylmethyl)-amino]-benzonitrile] | 6.74 | – | IC50 at 3 day [2]: 8.22 µM
6 | CC1(C)CC(O)CC(C)(CNc2ccc(Cl)c(C#N)c2)C1 (stereo not drawn) [Example IIa-30, 2-Chloro-5-[((cis-1,5)-5-hydroxy-1,3,3-trimethyl-cyclohexylmethyl)-amino]-benzonitrile] | 6.85 | – | IC50 at 3 day [2]: 7.99 µM
7 | CC1(C)CC(O)CC(C)(CNc2ccc(C#N)c(C(F)(F)F)c2)C1 (stereo not drawn) [Example IIa-33, 4-[((cis-1,5)-5-Hydroxy-1,3,3-trimethyl-cyclohexylmethyl)-amino]-2-trifluoromethyl-benzonitrile] | 7.31 | – | IC50 at 3 day [2]: 8.35 µM
8 | CC1(C)CC(O)CC(C)(C(=O)Nc2cccc(Cl)c2)C1 (stereo not drawn) [Example IVa-3, (cis-1,5)-5-Hydroxy-1,3,3-trimethyl-cyclohexanecarboxylic acid(3-chloro-phenyl)-amide] | 6.34 | 82.1 | –
9 | CC1(C)CC(O)CC(C)(C(=O)Nc2cccc(C(F)(F)F)c2)C1 (stereo not drawn) [Example IVa-4, (cis-1,5)-5-Hydroxy-1,3,3-trimethyl-cyclohexanecarboxylic acid(3-trifluoromethyl-phenyl)-amide] | 6.47 | 68.3 | –
10 | CC(C)c1cccc(NC(=O)C2(C)CC(O)CC(C)(C)C2)c1 (stereo not drawn) [Example IVa-5, (cis-1,5)-5-Hydroxy-1,3,3-trimethyl-cyclohexanecarboxylic acid(3-isopropyl-phenyl)-amide] | 5.98 | 21.6 | –
11 | CC1(C)CC(O)CC(C)(C(=O)Nc2cccc(OC(F)(F)F)c2)C1 (stereo not drawn) [Example IVa-8, (cis-1,5)-5-Hydroxy-1,3,3-trimethyl-cyclohexanecarboxylic acid(3-trifluoromethoxy-phenyl)-amide] | 6.06 | 60 | –
12 | CC1(C)CC(O)CC(C)(C(=O)Nc2cccc(S(N)(=O)=O)c2)C1 (stereo not drawn) [Example IVa-10, (cis-1,5)-5-Hydroxy-1,3,3-trimethyl-cyclohexanecarboxylic acid(3-sulfamoyl-phenyl)-amide] | 5.10 | > 100 | –
13 | CC1(C)CC(O)CC(C)(C(=O)Nc2cc(F)cc(F)c2)C1 (stereo not drawn) [Example IVa-11, (cis-1,5)-5-Hydroxy-1,3,3-trimethyl-cyclohexanecarboxylic acid(3,5-difluoro-phenyl)-amide] | 6.49 | > 100 | –
14 | CC1(C)CC(O)CC(C)(C(=O)Nc2cc(F)cc(Cl)c2)C1 (stereo not drawn) [Example IVa-12, (cis-1,5)-5-Hydroxy-1,3,3-trimethyl-cyclohexanecarboxylic acid(3-chloro-5-fluoro-phenyl)amide] | 7.26 | 56.4 | –
15 | CC1(C)CC(O)CC(C)(C(=O)Nc2cc(F)cc(C(F)(F)F)c2)C1 (stereo not drawn) [Example IVa-13, (cis-1,5)-5-Hydroxy-1,3,3-trimethyl-cyclohexanecarboxylic acid(3-fluoro-5-trifluoromethyl-phenyl)-amide] | 7.27 | 52.8 | –
16 | CC1(C)CC(O)CC(C)(C(=O)Nc2cc(Cl)cc(C(F)(F)F)c2)C1 (stereo not drawn) [Example IVa-14, (cis-1,5)-5-Hydroxy-1,3,3-trimethyl-cyclohexanecarboxylic acid(3-chloro-5-trifluoromethyl-phenyl)-amide] | 7.72 | 22.2 | –
17 | CC1(C)CC(O)CC(C)(C(=O)Nc2cc(Br)cc(C(F)(F)F)c2)C1 (stereo not drawn) [Example IVa-15, (cis-1,5)-5-Hydroxy-1,3,3-trimethyl-cyclohexanecarboxylic acid(3-bromo-5-trifluoromethyl-phenyl)-amide] | 7.26 | 7.31 | –
18 | COc1cc(NC(=O)C2(C)CC(O)CC(C)(C)C2)cc(C(F)(F)F)c1 (stereo not drawn) [Example IVa-16, (cis-1,5)-5-Hydroxy-1,3,3-trimethyl-cyclohexanecarboxylic acid(3-methoxy-5-trifluoromethyl-phenyl)-amide] | 7.22 | 74.8 | –
19 | CC1(C)CC(O)CC(C)(C(=O)Nc2cc(Cl)cc(Cl)c2)C1 (stereo not drawn) [Example IVa-17, (cis-1,5)-5-Hydroxy-1,3,3-trimethyl-cyclohexanecarboxylic acid(3,5-dichloro-phenyl)-amide] | 7.31 | 23.2 | –
20 | CC1(C)CC(O)CC(C)(C(=O)Nc2ccc(Cl)c(F)c2)C1 (stereo not drawn) [Example IVa-19, (cis-1,5)-5-Hydroxy-1,3,3-trimethyl-cyclohexanecarboxylic acid(4-chloro-3-fluoro-phenyl)amide] | 5.74 | 30.9 | –
21 | CC1(C)CC(O)CC(C)(C(=O)Nc2ccc(Cl)c(Cl)c2)C1 (stereo not drawn) [Example IVa-20, (cis-1,5)-5-Hydroxy-1,3,3-trimethyl-cyclohexanecarboxylic acid(3,4-dichloro-phenyl)-amide] | 6.20 | 9.63 | –
22 | CC1(C)CC(O)CC(C)(C(=O)Nc2ccc(F)c(C(F)(F)F)c2)C1 (stereo not drawn) [Example IVa-21, (cis-1,5)-5-Hydroxy-1,3,3-trimethyl-cyclohexanecarboxylic acid(4-fluoro-3-trifluoromethyl-phenyl)-amide] | 6.34 | 29.6 | –
23 | CC(=O)NC1CC(C)(C)CC(C)(C(=O)Nc2cccc(Cl)c2)C1 (stereo not drawn) [Example IVb-2, (cis-1,5)-5-Acetylamino-1,3,3-trimethyl-cyclohexanecarboxylic acid(3-chloro-phenyl)-amide] | 5.34 | > 100 | –
24 | CC(=O)N(C(C)=O)C1CC(C)(C)CC(C)(C(=O)Nc2cccc(Cl)c2)C1 (stereo not drawn) [Example IVb-3, (cis-1,5)-Diacetylamino-1,3,3-trimethyl-cyclohexanecarboxylic acid(3-chloro-phenyl)-amide] | 5.50 | 22.9 | –
25 | CC1(C)CC(NS(C)(=O)=O)CC(C)(C(=O)Nc2cccc(Cl)c2)C1 (stereo not drawn) [Example IVb-4, (cis-1,5)-5-Methanesulfonylamino-1,3,3-trimethyl-cyclohexanecarboxylic acid(3-chloro-phenyl)-amide] | 5.56 | > 100 | –
26 | CC(C)(C)c1cc(O)ccc1O [TBHQ, tert-butyl hydroquinone] | – | – | inhibition of fusion [7]: inhibits fusion
27 | C[C@H]1CC[C@H]2C(C)(C)[C@@H](O)CC[C@]23Oc2c(c(O)cc4c2CNC4=O)C[C@]13C [stachyflin] | – | – | block of influenza virus replication [4]: blocked; activity against H3 viruses [5]: not H3 viruses
28 | (cis-1,5)-5-Hydroxy-1,3,3-trimethyl-cyclohexanecarboxylic acid(4-chloro-3-trifluoromethyl-phenyl)-amide [Example IVa-22] | – | – | pEC50 [1, 8]: 6.78; pIC50 [2]: 5.13
